The record followed here is patent US20230219969A1 (priority 2020, published 2023).

For assay [1], the system named is 5HT2A. It is filed as cell-based. As to conditions: result in words.
The subject of assay [2] is mice. The experiment in a line: Head-twitch response (HTR) in mice. It is filed as in vivo. The conditions noted are these: hallucinogenic potential.
Assay [3] has as its target T1, 5HT2A (Homo sapiens, UniProt P28223). The experiment in a line: Serotonin 5-HT2A in vitro cellular IPOne agonism assay. It is filed as cell-based. Details: host or cells: CHO-K1. The conditions noted are these: CHO-K1 cells, IPOne HTRF; read-out: 5-HT2A IPOne Agonism Activity. In a few lines: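 CHO-K1 cells expressing the receptor, plated overnight, then exposed to compound for 60 min at 37° C. IP1 accumulation read by HTRF (IP1-d2/anti-IP1 cryptate, 1 h at room temperature) as fluorescence ratio; EC50 derived.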

Assay [4] has as its system Rat cortical neurons. The experiment in a line: Neurite Outgrowth Assay (Procedure A). The conditions noted are these: 1 hour treatment at DIV 4, analyzed DIV 7. The format is cell-based. From the text: Neurite outgrowth assay. Changes in the pattern of neurite outgrowth have been implicated in neurodegenerative disorders as well as traumatic injuries. The discovery of new compounds that can positively affect neuritogenesis are important for developing new therapeutics for neurological diseases. Measurement of neurite outgrowth of rat cortical neurons using an automated image-based assay is used to determine the neuroplastic effects of the compounds provided herein. In some embodiments, a compound provided herein increases the pattern of neurite outgrowth. In some embodiments, a compound provided herein increases neurite average length compared to a control. In some embodiments, a compound provided herein increases neurite branch points compared to a control. In some embodiments, a compound provided herein increases neurite average length and neurite branch points compared to a control.
In some embodiments, the plastogenic potential of compounds provided herein is assessed by measuring the changes in neurite development. In some embodiments, the plastogenic potential (as measured by Neurite Outgrowth Procedure A) of the compounds is shown in Table 10.
Neurite Outgrowth Assay (Procedure A). Rat cortical neurons (20,000 cells/well) were freshly isolated from embryonic day 18 rats and cultured in Neurobasal Medium (+B27). The cultured cells were plated in 96 well-plates (avoiding external wells). At DIV 4, the neurons were treated with compound or control (10 μM) for 1 hour followed by complete washout of the compound. At DIV 7, the neurons were analyzed. The experiments were performed in triplicate. Neurite outgrowth was measured analyzing the following parameters: Number of Cell Bodies, total neurite length (pixels), Root Count, Segments, Extremities Count and node points. Changes in the pattern of neurite outgrowth of the neurons were analyzed by immunocytochemistry against […]. Pictures were acquired by the CellInsight CX7 from Thermo Fisher and analyzed using its software. Results generated in the equipment were maximum neurite length, extremity count, root count, dendrite branch points, and total neurite length. The results were compared the percent of DMSO control, representing the percentage of outgrowth compare to vehicle control in neuronal outgrowth.

In assay [5] the target is T1, 5HT2A. The experiment in a line: Serotonin 5-HT2A in vitro radioligand binding competition assay ([3H]-DOI). Also noted: purchased Epics Therapeutics S.A. (Belgium) FAST-0505B. As to conditions: [3H]-DOI competition, membrane extracts; read-out: 5-HT2A Radioligand Binding Activity. In a few lines: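 Competition binding against [3H]-DOI on membrane extracts, in duplicate; buffer, protein, radioligand level, time and temperature were receptor-optimized. Nonspecific binding defined with 200-fold excess cold competitor. Bound radioactivity counted by scintillation after filtration and washing.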

Assay [6] concerns Rat cortical neurons. Description: Neurite Outgrowth in Primary Neuronal Cultures Assay (Procedure B). It is filed as cell-based. Also noted: key: A: Statistically significant mean increase as a percent of DMSO control at 10 μM or less; B: No statistically significant mean increase as a percent of DMSO control at 10 μM or less. As to conditions: 72 h, percent of DMSO control at 10 μM or less. The source says:
Neurite Outgrowth in Primary Neuronal Cultures Assay (Procedure B). Changes in the pattern of neurite outgrowth have been implicated in psychiatric and neurodegenerative disorders as well as traumatic injuries. The discovery of new compounds that can positively affect neuritogenesis are important for developing new therapeutics for neurological diseases. Measurement of neurite outgrowth of rat cortical neurons using an automated image-based assay was used to determine the neuroplastic effects of the compounds of the present invention. The neurite outgrowth assay was performed at Neurofit SAS (France) as described below.
Pregnant Wistar rats (Janvier; France) were used for the study. They were delivered 6 days before their use. Upon arrival at Neurofit animal facility, they were housed one per cage and maintained in a room with controlled temperature (21-22° C.) and a reversed light-dark cycle (12 h/12 h; lights on: 17:30-05:30; lights off: 05:30-17:30) with food and water available ad libitum.
Female Wistar rats of 17 days gestation were killed by cervical dislocation and the fetuses were removed from the uterus. Their brains were placed in ice-cold medium of Leibovitz (L15, Gibco, Fisher bioblock, France). Cortices were dissected and meninges were carefully removed. The cortical neurons were dissociated by trypsinization for 30 min at 37° C. (trypsin-EDTA, Gibco) in presence of 0.1 mg/ml DNAse I (Roche, France). The reaction was stopped by addition of Dulbecco's Modified Eagle Medium (DMEM; Gibco) with 10% of fetal bovine serum (FBS; Gibco). The suspension was triturated with a 10-ml pipette and using a needle syringe 21G and centrifuged at 350×g for 10 min at room temperature. The pellet of dissociated cells was resuspended in a medium consisting of Neurobasal (Gibco) supplemented with 2% B27 supplement (Gibco), 0.5 mM L-Glutamine (Gibco), an antibiotic-antimicotic mixture. Viable cells were counted in a Neubauer cytometer using the trypan blue exclusion test (Sigma). Cells were seeded at a density of 10000 cells per well in 96-well plate (Costar) precoated with poly-L-lysine. Test compound at different concentrations were added to the cultures. Donepezil (positive control) was tested at 250 nM.
After 72 h (3 days) of plating, cultures were fixed with paraformaldehyde in PBS (4%, Sigma) for 30 min at 4° C. Then, cells were successively permeabilized with 0.1% Triton X100 for 30 min, saturated with PBS containing 3% of BSA and were incubated 1 h with anti-beta III tubulin antibody (Sigma) at 1/10 000 in PBS containing 0.5% of BSA. Cells were washed three times with PBS containing 0.5% of BSA, and they were incubated 1 h with goat anti-mouse antibody coupled with AF488 (Invitrogen A11001) diluted at 1/1000 in PBS containing 0.5% of BSA. Finally, nuclei were staining with DAPI 1 mg/ml at 1/1000 in PBS containing 0.5% of BSA. After rinsing with PBS, the plate was filmed and neurite networks were examined and analyzed using High-Content Screening (CellInsight, Thermo Scientific). The average number of neurites per neuron and the average total length of neurites per neuron were the main parameters analyzed. Analysis of data was performed using analysis of variance (ANOVA). The Fisher's Protected Least Significant Difference test was used for multiple comparisons. A p value<0.05 was considered significant. The software used is StatView 5.0 from SAS Institut.
In some embodiments, a compound of the present invention increases the pattern of neurite outgrowth. In some embodiments, a compound of the present invention increases neurite average length compared to a control. In some embodiments, a compound of the present invention increases neurite branch points compared to a control.

Assay [7] has as its target T1, 5HT2A. The experiment in a line: cell-based.
Description: Cell lines were expanded from freezer stocks according to standard procedures. Cells were seeded in a total volume of 20 μL into black-walled, clear-bottom, Poly-D-lysine coated 384-well microplates and incubated at 37° C. for the appropriate time prior to testing. Assays were performed in 1× Dye Loading Buffer consisting of 1× Dye, 1× Additive A and 2.5 mM Probenecid in HBSS/20 mM Hepes. Probenicid was prepared fresh. Cells were loaded with dye prior to testing. Media was aspirated from cells and replaced with 20 μL Dye Loading Buffer. Cells are incubated for 30-60 minutes at 37° C.
For agonist determination, cells were incubated with sample to induce response. After dye loading, cells were removed from the incubator and 10 μL HBSS/20 mM Hepes was added. […] Cells were incubated for 30 minutes at room temperature in the dark to equilibrate plate temperature. Intermediate dilution of sample stocks was performed to generate 4× sample in assay buffer. Compound agonist activity was measured on a FLIPR Tetra (MDS). Calcium mobilization is monitored for 2 minutes and 10 μL 4× sample in HBSS/20 mM Hepes was added to the cells 5 seconds into the assay.
Compound activity was analyzed using CBIS data analysis suite (ChemInnovation, CA). For agonist mode assays, percentage activity was calculated using the following formula:
% Activity=100%×(mean RFU of test sample−mean RFU of vehicle control)/(mean MAX RFU control ligand −mean RFU of vehicle control).
Assay [8] concerns 5HT2A. As to conditions: result in words.

SMILES strings stand for the structures. Where only a bound is given, the exact number is not on record here.

T1 sequence (P28223 whole entry): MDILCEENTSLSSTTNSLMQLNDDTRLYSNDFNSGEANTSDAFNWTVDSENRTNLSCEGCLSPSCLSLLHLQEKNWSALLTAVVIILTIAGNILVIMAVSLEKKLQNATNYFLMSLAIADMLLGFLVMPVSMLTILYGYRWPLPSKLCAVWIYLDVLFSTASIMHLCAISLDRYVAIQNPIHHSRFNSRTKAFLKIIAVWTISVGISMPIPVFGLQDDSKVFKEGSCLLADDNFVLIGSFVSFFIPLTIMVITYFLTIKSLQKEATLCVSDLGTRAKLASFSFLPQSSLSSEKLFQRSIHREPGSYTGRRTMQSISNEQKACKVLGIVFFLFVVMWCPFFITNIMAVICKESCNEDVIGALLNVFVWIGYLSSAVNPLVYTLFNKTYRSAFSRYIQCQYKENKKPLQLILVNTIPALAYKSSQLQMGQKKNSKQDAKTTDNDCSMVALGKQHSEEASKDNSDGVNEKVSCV

As to `COc1ccc2[nH]cc(CCN(C)C)c2c1` [Example 5-MeO-DMT], the “activation of 5HT2A sensor assay in agonist mode” value in assay [1] is given as “activate the 5HT2A sensor assay in agonist mode”. In addition, in assay [2], the “head-twitch response (HTR)” value is “produces a robust, dose-dependent head-twitch response”.
As to `CN(C)CCn1ccc2cncnc21` [Example 6, N,N-dimethyl-2-(7H-pyrrolo[2,3-d]pyrimidin-7-yl)ethan-1-amine], the EC50 in assay [3] was more than 10 µM. Moreover, in assay [4], the “Neurite Average Length @ 10 μM” value is recorded as “A (>200% vehicle)” and the “Neurite Branch Points: @ 10 μM” value is listed as “A (>200% vehicle)”. Also, the IC50 in assay [5] was in the range of 1 to 10 µM. Moreover, in assay [6], the “Increase in Neurite Length” value is “B” and the “Increase in Neurite Number” value is recorded as “B”. Also, the EC50 in assay [7] is more than 110 µM.
Consider `COc1ccc2c(CCN(C)C)c[nH]c2c1` [Example 6-MeO-DMT], for which the “activation of 5HT2A sensor assay in agonist mode” value in assay [1] is listed as “do not activate the 5HT2A sensor assay in agonist mode”. For the same compound, in assay [2], the “head-twitch response (HTR)” value is on record as “does not produce a HTR”. Further, the “competition with 5-HT in 5HT2A sensor assay in antagonist mode” value in assay [8] is recorded as “compete off 5-HT”.
On to `CN(C)CCn1ccc2cnccc21` [Example 7, N,N-dimethyl-2-(1H-pyrrolo[3,2-c]pyridin-1-yl)ethan-1-amine], for which the EC50 in assay [3] is more than 10 µM. For the same compound, in assay [4], the “Neurite Average Length @ 10 μM” value is given as “B (100%-200% vehicle)” and the “Neurite Branch Points: @ 10 μM” value is listed as “A (>200% vehicle)”. The IC50 in assay [5] was more than 10 µM. In assay [6], the “Increase in Neurite Length” value is on record as “A” and the “Increase in Neurite Number” value is recorded as “B”. The compound further registered an EC50 in assay [7] of more than 110 µM.
In the case of `COc1ccc2c(c1)CCN2CCN(C)C` [Example 8, 2-(5-methoxyindolin-1-yl)-N,N-dimethylethan-1-amine], in assay [3], the EC50 was more than 10 µM. Besides, in assay [4], the “Neurite Average Length @ 10 μM” value is reported as “B (100%-200% vehicle)” and the “Neurite Branch Points: @ 10 μM” value is listed as “A (>200% vehicle)”. In assay [5], the IC50 is more than 10 µM. In assay [6], the “Increase in Neurite Length” value was “A” and the “Increase in Neurite Number” value is on record as “B”. In assay [7], this compound returned an EC50 of more than 110 µM.
